Reference: publication PMC6269946, “Anti-Plasmodial Activity of Some Zulu Medicinal Plants and of Some Triterpenes Isolated from Them” (Molecules, 2013)
Values after ≈ are worked out from the molar mass of the structure shown. Like-named read-outs stand apart in the source and are kept apart here.

Assays:
[1] = tested on: chloroquine sensitive (CQS) strain of Plasmodium falciparum (D10); test: In vitro antiplasmodial activity, parasite lactate dehydrogenase assay; type: cell-based; conditions: for IC50: Plasmodium falciparum
Description: The test samples (crude extracts, isolates, and chemical derivatives) were tested in triplicate against a chloroquine sensitive (CQS) strain of Plasmodium falciparum (D10). Continuous in vitro cultures of asexual erythrocyte stages of P. falciparum were maintained using modified method of Trager and Jensen. Quantitative assessment of anti-plasmodial activity in vitro was determined via the parasite lactate dehydrogenase assay using a modified method described by Makler. The test samples were prepared to a 20 mg/mL stock solution in 100% DMSO and sonicated to enhance solubility. Stock solutions were stored at −20 °C. Further dilutions were prepared on the day of the experiment. Chloroquine and artesunate were used as the reference drugs for experiments. A full dose-response was performed for all active compounds to determine the concentration inhibiting 50% of parasite growth (IC50-value). Test samples were tested at a starting concentration of 100 μg/mL, which was then serially diluted 2-fold in complete medium to give 10 preparations of variable concentrations; with the lowest concentration being 0.2 μg/mL. The same dilution technique was used for all samples. CQ was tested at a starting concentration of 1,000 ng/mL. The highest concentration of solvent to which the parasite-infected erythrocytes were exposed to had no measurable effect on the parasite viability (data not shown). The IC50-values were obtained using a non-linear dose-response curve fitting analysis via Graph Pad Prism v.4.0 software (Graph Pad Prism, Inc: San Diego, CA, USA, 1994–2003).

[2] = tested on: Plasmodium berghei; test: In vivo antiplasmodial activity, four-day suppressive test in infected mice; parameters: species or system Swiss mice; conditions: P. berghei infected mice, oral for four consecutive days, smears on day five; chloroquine 5 mg/kg/day; dose not given (50-400 mg/kg/day groups)
Description: This study was carried out after the approval from the Ethical Committee on Animal Use and Care of the University of Zululand (UZREC 171110-030 PGD 2013/26). Swiss mice (20-25 g each) of both sexes were obtained from biomedical research unit (BRU) in the University of […], Durban. They were kept in plastic cages, and given standard laboratory diet and water ad libitum and maintained under laboratory conditions of temperature and 12 h light and 12 h dark cycle. The animals were allowed to acclimatize to the laboratory at a controlled temperature of 22 °C for 15 days before being subjected to the experiments. The animals were divided into seven groups (eight in each group) consisting of control, chloroquine (5 mg/kg/day), and the extract treated group. The extract treated group was sub divided into five sub groups that received 50, 100, 200, 300 and 400 mg/kg/day body weight respectively. A single donor mouse infected with Plasmodium berghei parasites was bled into sterile heparinized culture medium and the blood was diluted with RPMI 1640 medium. The healthy experimental mice were infected intravenously via a tail vein with 0.2 mL of the diluted blood containing 1 × 10^7 parasitized (Plasmodium berghei) red blood cells on day one. The antimalarial activity tests were performed using the four-day suppressive tests described by Peters et al.. The extracts dissolved in 0.5% carboxymethyl cellulose (CMC) were administered orally using cannula (equivalent to 0.2 mL solution per mouse) for four consecutive days. […] The percent parasitemia suppression was determined by counting the number of parasitized erythrocytes out of 500 red blood cells on random fields under the microscope. The average percentage suppression of parasitemia was calculated using the following formula: % suppression = A - B/C (1) where A = % parasitemia in untreated controls, B = % parasitemia in treated groups, and C = % parasitemia in untreated controls. The data were analyzed using the F-test.

[3] = P. falciparum CQS D10 strain, in vitro, pLDH assay, triplicate, starting concentration 100 μg/mL, read-out: IC50 (anti-plasmodial activity, concentration inhibiting 50% of parasite growth)

SMILES: CO[C@H]1CC[C@@]2(C)C(CC[C@@]3(C)C4=CC[C@@]5(C)CCC(C)(C)CC5[C@]4(C)CCC23)C1(C)C (some centres unmarked) [Sawamilletin, sawamilletin]
- IC50 [1, 3]: > 100 µg/mL

SMILES: CCN(CC)CCCC(C)Nc1ccnc2cc(Cl)ccc12 (centres unmarked) [Chloroquine, reference compound]
- IC50 ([1]; D10, read-out: IC50 (anti-plasmodial activity), reference drugs): 0.0141 µg/mL (≈ 0.0441 µM)
- Average % suppression (of parasitemia) [2]: 83.43%

SMILES: C[C@H]1[C@H](C)CC[C@]2(C(=O)O)CC[C@]3(C)C(=CC[C@@H]4[C@@]5(C)CCC(=O)C(C)(C)[C@@H]5CC[C@]43C)[C@H]12 [3-oxo-ursolic acid]
- IC50 [1, 3]: 7.3 µg/mL (≈ 16.1 µM)

SMILES: C[C@H]1[C@H](C)CC[C@]2(C(=O)O)CC[C@]3(C)C(=CC[C@@H]4[C@@]5(C)CC[C@H](O)C(C)(C)[C@@H]5CC[C@]43C)[C@H]12 [Ursolic acid, ursolic acid]
- IC50 [1, 3]: 6.8 µg/mL (≈ 14.9 µM)

SMILES: CC(=O)O[C@H]1CC[C@]2(C)[C@H]3CC=C4[C@@H]5[C@@H](C)[C@H](C)CC[C@]5(C(=O)O)CC[C@@]4(C)[C@]3(C)CC[C@H]2C1(C)C [Ursolic acid acetate, 3β-acetylursolic acid]
- IC50 [1, 3]: 1.9 µg/mL
- Increase in the in vitro anti-malarial activity relative to ursolic acid ([1]; acetate derivative versus ursolic acid, P. falciparum D10): 72%
- Average % parasitemia [2]: 0.07%
- Average % suppression (of parasitemia) [2]: 94.01%

SMILES: C[C@H]1[C@H](OC(=O)CCC(=O)O)O[C@@H]2O[C@@]3(C)CC[C@H]4[C@H](C)CC[C@@H]1[C@@]24OO3 [Artesunate, reference compound]
- IC50 ([1]; P. falciparum CQS D10 strain, in vitro, pLDH assay, values marked * = ng/mL, read-out: IC50 (anti-plasmodial activity), reference drugs): 0.0051 µg/mL (≈ 0.0133 µM)

SMILES: CC1(C)CC[C@]2(C)CC=C3[C@]4(C)CC[C@H]5C(C)(C)[C@@H](O)CC[C@]5(C)[C@H]4CC[C@@]3(C)[C@@H]2C1 [Taraxerol, taraxerol]
- IC50 [1, 3]: > 100 µg/mL
